In EP3327020A1, “CITRATE SALTS OF A JANUS KINASE (JAK) INHIBITOR” (SANDOZ AG, priority 2016, dated 2018):
In brackets after ≈: the same amount, converted by molar mass. Entries after “also recorded” stand apart in the source; their conditions may differ.

Assay: Solubility in 0.1N aqueous HCl (saturated solution stirred at 37 °C for 1 hour, filtered, baricitinib concentration of the mother liquor determined by HPLC)
Type: physicochemical
Conditions: for solubility at 1 h: simulated gastric fluid, thermodynamic from solid, read-out: Solubility in 0.1N aqueous HCl after 1 hour
Procedure: The solubilities of baricitinib free base, phosphate, trifluoroacetate, monocitrate and dicitrate in 0.1N HCl have been determined. […] Thereafter, the solid was removed by filtration and the baricitinib concentration of the mother liquor was determined by HPLC.
The absolute solubility values were calculated from a calibration curve generated with solutions of known baricitinib concentrations and are listed in Table 5. Table 5: Comparative solubility data in 0.1N aqueous hydrochloric acid

[1] = 0.1N aqueous HCl, 37 °C, 1 hour, baricitinib concentration by HPLC

Row | Structure (SMILES) | Solubility in 0.1N aqueous HCl after 1 hour [1] [mg/mL] | solubility compared to the free base form (in words) (0.1N aqueous hydrochloric acid, listed as phosphate salt of baricitinib) | solubility relative to the solubility of baricitinib free base (0.1N aqueous hydrochloric acid) | solubility at 1 h [1] [mg/mL]
1 | CCS(=O)(=O)N1CC(CC#N)(n2cc(-c3ncnc4[nH]ccc34)cn2)C1.O=P(O)(O)O [Phosphate salt of WO 2009/114512 A1] | 26 | only a slightly increased solubility; also recorded: only slightly improved solubility values |  | 
2 | CCS(=O)(=O)N1CC(CC#N)(n2cc(-c3ncnc4[nH]ccc34)cn2)C1.O=C(O)CC(O)(CC(=O)O)C(=O)O.O=C(O)CC(O)(CC(=O)O)C(=O)O [{1-(Ethylsulfonyl)-3-[4-(7H-pyrrolo[2,3-d]pyrimidin-4-yl)-1H-pyrazol-1-yl]azetidin-3-yl}acetonitrile dicitrate] |  |  | more than 2 fold | > 50
3 | CCS(=O)(=O)N1CC(CC#N)(n2cc(-c3ncnc4[nH]ccc34)cn2)C1.O=C(O)CC(O)(CC(=O)O)C(=O)O [{1-(Ethylsulfonyl)-3-[4-(7H-pyrrolo[2,3-d]pyrimidin-4-yl)-1H-pyrazol-1-yl]azetidin-3-yl}acetonitrile monocitrate] |  |  | more than 2 fold | > 50
4 | CCS(=O)(=O)N1CC(CC#N)(n2cc(-c3ncnc4[nH]ccc34)cn2)C1 [{1-(Ethylsulfonyl)-3-[4-(7H-pyrrolo[2,3-d]pyrimidin-4-yl)-1H-pyrazol-1-yl]azetidin-3-yl}acetonitrile] |  |  |  | 25 (≈ 67.3 mM)
